According to US9107415B2, “2-(substituted-phenyl)-cyclopentane-1,3-dione compounds, and derivatives thereof” (Syngenta Limited, priority 2011, dated 2015):

Assays:
Assay type in all cases: in vivo
[1] = test system: Alopecurus myosuroides (ALOMY); assay: Biological Example 1 glasshouse screen, pre-emergence herbicidal activity; details: 312 h, application rate 250 g/ha, evaluated after 13 days, read-out: ALOMY percentage phytotoxicity
Summary of the method: (§1)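 Seeds sown in standard soil in pots were sprayed 1 day (pre-emergence) or 8 days (post-emergence) after sowing with technical active ingredient in acetone/water (50:50) containing 0.5% Tween 20. Plants grown at 24/16°C day/night, 14 h light, 65% humidity. Visual % phytotoxicity scored after 13 days (100% = total damage).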

[2] = test system: Echinochloa crus-galli (ECHCG); assay: as above; details: 312 h, application rate 250 g/ha, evaluated after 13 days, read-out: ECHCG percentage phytotoxicity
Summary of the method: as §1

[3] = test system: Avena fatua (AVEFA); assay: as above; details: 312 h, application rate 250 g/ha, evaluated after 13 days, read-out: AVEFA percentage phytotoxicity
Summary of the method: (§2)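 Pots in a glasshouse (24/16°C day/night, 14 h light, 65% humidity) were sprayed one day after sowing (pre-emergence) or after 8 days (post-emergence), using acetone/water (50:50) with 0.5% Tween 20. Phytotoxicity was scored visually as % damage (0-100) 13 days after application.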

[4] = test system: Lolium perenne (LOLPE); assay: as above; details: 312 h, application rate 250 g/ha, evaluated after 13 days, read-out: LOLPE percentage phytotoxicity
Summary of the method: as §2

[5] = test system: Alopecurus myosuroides (ALOMY); assay: Biological Example 1 glasshouse screen, post-emergence herbicidal activity; details: 312 h, application rate 250 g/ha, evaluated after 13 days, read-out: ALOMY percentage phytotoxicity
Summary of the method: as §1

[6] = test system: Echinochloa crus-galli (ECHCG); assay: as above; details: 312 h, application rate 250 g/ha, evaluated after 13 days, read-out: ECHCG percentage phytotoxicity
Summary of the method: as §1

[7] = test system: Avena fatua (AVEFA); assay: as above; details: 312 h, application rate 250 g/ha, evaluated after 13 days, read-out: AVEFA percentage phytotoxicity
Summary of the method: as §2

[8] = test system: Lolium perenne (LOLPE); assay: as above; details: 312 h, application rate 250 g/ha, evaluated after 13 days, read-out: LOLPE percentage phytotoxicity
Summary of the method: as §2

[9] = test system: Alopecurus myosuroides (ALOMY); assay: Biological Example 4B (not-previously-formulated compounds) post-emergence herbicidal activity on grassy weeds; details: 14 DAA, technical compound in IF50 + Adigor, mean of two
Description: (§3) Seeds of a variety of test species are sown in standard soil in pots. After cultivation for 14 days under controlled conditions in a glasshouse (at 22/16°C., day/night; 16 hours light; 65% humidity), the plants are sprayed with an aqueous spray solution derived from the formulation of the technical active ingredient dissolved in acetone plus IF50 containing
(§4) 10.56 wt % Emulsogen™EL (castor oil ethoxylate, CAS Registry number 61791-12-6)
(§5) 42.22 wt % N-Methyl pyrrolidone
(§6) 42.22 wt % dipropylene glycol monoethyl ether
(§7) at a 1:20 ratio of (technical active ingredient:IF50). The adjuvant Adigor™(an adjuvant containing inter alia methylated rapeseed oil, e.g. available from Syngenta) is added to form a 0.5% v/v solution. The test plants are then grown on under controlled conditions in the glasshouse (at 22/16°C., day/night; 16 hours light; 65% humidity) and are watered twice daily. After 14 days the test is evaluated (100%=total damage to plant; 0%=no damage to plant).
(§8) […] Herbicidal activity (phytotoxicity) is evaluated visually, and an assessed percentage phytotoxicity score is given for each herbicidal application on each plant species (with 100%=total damage to plant; 0%=no damage to plant). Two repetitions are made for each experiment, and the mean herbicidal activity (phytotoxicity) data is reported.
(§9) Test plants: Avena fatua (AVEFA), Lolium multiflorum (LOLMU), Setaria viridis (SETVI), Poa annua (POAAN), Alopecurus myosuroides (ALOMY). All five of these are grassy monocotyledonous weeds.

[10] = test system: Avena fatua (AVEFA); assay: as above; details: 14 DAA, technical compound in IF50 + Adigor, mean of two
Description: as §3, §4, §5, §6, §7, §8, §9

[11] = test system: Poa annua (POAAN); assay: as above; details: 14 DAA, technical compound in IF50 + Adigor, mean of two
Description: as §3, §4, §5, §6, §7, §8, §9

[12] = test system: Setaria viridis (SETVI); assay: as above; details: 14 DAA, technical compound in IF50 + Adigor, mean of two
Description: as §3, §4, §5, §6, §7, §8, §9

[13] = test system: Lolium multiflorum (LOLMU); assay: as above; details: 14 DAA, technical compound in IF50 + Adigor, mean of two
Description: as §3, §4, §5, §6, §7
(§10) Post-emergence herbicidal activity (phytotoxicity) data, on certain grassy monocotyledonous weeds and cereal crops in a glasshouse, are measured 14 days after application of the herbicide (14 DAA), for (a) a […] the same time as the herbicide, and (b) for a post-emergence application rate of 30 g/ha of the test herbicide with 50 g/ha of cloquintocet-mexyl safener applied at substantially the same time as the herbicide. Herbicidal activity (phytotoxicity) is evaluated visually, and an assessed percentage phytotoxicity score is given for each herbicidal application on each plant species (with 100%=total damage to plant; 0%=no damage to plant). Two repetitions are made for each experiment, and the mean herbicidal activity (phytotoxicity) data is reported.
as §9

[14] = test system: Winter Barley “Suzuka”; assay: Biological Example 4B post-emergence phytotoxicity on cereal crops; details: 14 DAA, technical compound in IF50 + Adigor, mean of two
Description: as §3, §4, §5, §6, §7, §8

[15] = test system: Winter Wheat “Hereward”; assay: as above; details: 14 DAA, technical compound in IF50 + Adigor, mean of two
Description: as §3, §4, §5, §6, §7, §8

[16] = test system: Spring Wheat “Teal”; assay: as above; details: 14 DAA, technical compound in IF50 + Adigor, mean of two
Description: as §3, §4, §5, §6, §7, §10

[17] = test system: Spring Barley “Harrington”; assay: as above; details: 14 DAA, technical compound in IF50 + Adigor, mean of two
Description: as §3, §4, §5, §6, §7
Post-emergence herbicidal activity (phytotoxicity) data, on certain grassy monocotyledonous weeds and cereal crops in a glasshouse, are measured 14 days after application of the herbicide (14 DAA), for (a) a post-emergence application rate of 60 g/ha of the test herbicide with or without 50 g/ha of cloquintocet-mexyl safener applied at substantially the same time as the herbicide, and (b) for a post-emergence application rate of 30 g/ha of the test herbicide with 50 g/ha of cloquintocet-mexyl safener applied at substantially the same time as the herbicide. Herbicidal activity (phytotoxicity) is evaluated visually, and an assessed percentage phytotoxicity score is given for each herbicidal application on each plant species (with 100%=total damage to plant; 0%=no damage to plant). Two repetitions are made for each experiment, and the mean herbicidal activity (phytotoxicity) data is reported.

[18] = test system: Spring Barley “Harrington”; assay: as above; details: cloquintocet-mexyl 50 g/ha, 14 DAA, technical compound in IF50 + Adigor, mean of two
[19] = 7.5 g/ha, cloquintocet-mexyl 50 g/ha
[20] = 15 g/ha, cloquintocet-mexyl 50 g/ha
[21] = 30 g/ha, cloquintocet-mexyl 50 g/ha
[22] = 60 g/ha, cloquintocet-mexyl 0 g/ha
[23] = 60 g/ha, cloquintocet-mexyl 50 g/ha

CC#Cc1cc(C)c(C2C(=O)CC(Cc3ccccn3)C2=O)c(CC)c1 (centres unmarked) [Compound A-26]
pest or weed control at 250 g/ha [1]: 100%
pest or weed control at 250 g/ha [2]: 100%
pest or weed control at 250 g/ha [3]: 100%
pest or weed control at 250 g/ha [4]: 100%
pest or weed control at 250 g/ha [5]: 100%
pest or weed control at 250 g/ha [6]: 100%
pest or weed control at 250 g/ha [7]: 100%
pest or weed control at 250 g/ha [8]: 100%
ALOMY % phytotoxicity [9, 19]: 97%
ALOMY % phytotoxicity [9, 20]: 99%
ALOMY % phytotoxicity [9, 21]: 100%
ALOMY % phytotoxicity [9, 22]: 100%
ALOMY % phytotoxicity [9, 23]: 100%
AVEFA % phytotoxicity [10, 19]: 83%
AVEFA % phytotoxicity [10, 20]: 99%
AVEFA % phytotoxicity [10, 21]: 100%
AVEFA % phytotoxicity [10, 22]: 100%
AVEFA % phytotoxicity [10, 23]: 100%
POAAN % phytotoxicity [11, 19]: 0%
POAAN % phytotoxicity [11, 20]: 13%
POAAN % phytotoxicity [11, 21]: 33%
POAAN % phytotoxicity [11, 22]: 73%
POAAN % phytotoxicity [11, 23]: 70%
SETVI % phytotoxicity [12, 19]: 68%
SETVI % phytotoxicity [12, 20]: 95%
SETVI % phytotoxicity [12, 21]: 100%
SETVI % phytotoxicity [12, 22]: 100%
SETVI % phytotoxicity [12, 23]: 100%
LOLMU % phytotoxicity [13, 19]: 90%
LOLMU % phytotoxicity [13, 20]: 100%
LOLMU % phytotoxicity [13, 21]: 100%
LOLMU % phytotoxicity [13, 22]: 100%
LOLMU % phytotoxicity [13, 23]: 100%
Winter Barley “Suzuka” phytotoxicity (%) [14, 19]: 4%
Winter Barley “Suzuka” phytotoxicity (%) [14, 20]: 53%
Winter Barley “Suzuka” phytotoxicity (%) [14, 21]: 100%
Winter Barley “Suzuka” phytotoxicity (%) [14, 22]: 100%
Winter Barley “Suzuka” phytotoxicity (%) [14, 23]: 100%
Winter Wheat “Hereward” phytotoxicity (%) [15, 19]: 30%
Winter Wheat “Hereward” phytotoxicity (%) [15, 20]: 80%
Winter Wheat “Hereward” phytotoxicity (%) [15, 21]: 90%
Winter Wheat “Hereward” phytotoxicity (%) [15, 22]: 99%
Winter Wheat “Hereward” phytotoxicity (%) [15, 23]: 98%
Spring Wheat “Teal” phytotoxicity (%) [16, 19]: 23%
Spring Wheat “Teal” phytotoxicity (%) [16, 20]: 78%
Spring Wheat “Teal” phytotoxicity (%) [16, 21]: 93%
Spring Wheat “Teal” phytotoxicity (%) [16, 22]: 100%
Spring Wheat “Teal” phytotoxicity (%) [16, 23]: 97%
Spring Barley “Harrington” phytotoxicity (%) [17, 21]: 99%
Spring Barley “Harrington” phytotoxicity (%) [17, 22]: 100%
Spring Barley “Harrington” phytotoxicity (%) [17, 23]: 100%
Spring Barley “Harrington” phytotoxicity (%) ([18]; 7.5 g/ha): 10%
Spring Barley “Harrington” phytotoxicity (%) ([18]; 15 g/ha): 80%
